Drawing on patent publication EP0400190A1, “New water-soluble derivatives of nabumetone, a process for their preparation and pharmaceutical compositions which contain them” (MAGIS FARMACEUTICI S.p.A., priority 1989, dated 1990), this text covers ED50 for 1 compound.

One assay concerns mice. Nature of the assay: Analgesic activity, Writhing test using p-phenylquinone. Format: in vivo. Particulars: Mus musculus, po, mice treated orally, read-out: ED₅₀. As to the method:
The analgesic activity was measured by the Writhing test using p-phenylquinone on mice treated orally with the nabumetone enamines in comparison with acetylsalicylic acid, the results showing an ED₅₀ (mg/Kg) for the enamines of about 80 whereas for acetylsalicylic acid the value is about 106.1.
Background: In writhing tests, fewer writhes than in controls are read as antinociception.

The subject of assay [1] is edema induced in the rat by formalin. The experiment in a line: Anti-inflammatory activity on formalin-induced edema. Conditions: read-out: ED₅₀. Format: in vivo. From the text:
The anti-inflammatory activity of these enamines was studied in comparison with acetylsalicylic acid on edema induced in the rat by formalin.

On to `CC(=O)Oc1ccccc1C(=O)O` [acetylsalicylic acid], for which the ED50 with mice was about 106 mg/kg; in assay [1], about 313 mg/kg.
